The record followed here is patent US20240192237A1 (curantis UG, priority 2021, published 2024).

This series is described as follows: CBD trough plasma concentration in clinical trials CBD-CT1 and CBD-PT (LC-MS/MS). The series is classed as in vivo, patients. As to conditions: for concentration at 7 day: Day 7, mean ± SD; for concentration at 14 day: Day 14, mean ± SD. The protocol: CBD was administered as an oral dose in a capsule formulation. The dose was increased during the first week from 200 mg/d to 800 mg/d (4×200 mg) and remained at this level for the rest of the study period. Due to serious unwanted effects, the dose could be reduced irreversibly to 600 mg/d starting with day 15. […] Dose applications, blood sampling, and assessment of PANSS followed the time schedule presented below. Additional treatment with 7.5 mg lorazepam per day during the whole study period was permitted. […]
Eighteen patients with a diagnosis of schizophrenia or schizophreniform disorder should be included in this trial per protocol. Because dropouts had to be replaced by a new patient a total number of 29 patients was randomized from February 2006 to June 2008. All randomized patients complied with all inclusion and exclusion criteria: age between 18 and 65, male and female, specific DSM-IV diagnoses, initial BPRS score≥36, no pregnancy or lactation phase, reliable contraception, no lack of accountability, no other relevant interferences, no treatment with depot-antipsychotics during the last three months, no severe internal or neurological illness, no QTc prolongation, no acute suicidality nor endangerment of others by the patient. […] Treatment lasted four weeks: the first period with two weeks of CBD or placebo treatment was followed by a second period with a two-week treatment of placebo or CBD, respectively. There was no washout period between the two treatments. […] The dose could be reduced irreversibly to 400 mg/d in case of serious unwanted effects. […] The PANSS was applied at baseline and day 14 and 28. Dose applications, blood sampling, and assessment of PANSS followed the time schedule presented below. Additional treatment with 5.0 mg lorazepam per day during the whole study period was permitted. […]
Therefore, documentation of time points when CBD was administered and when blood samples were taken was limited and not included in the electronic data. Information on possible dose reductions e.g. due to adverse events were missing in the electronic data, too. In cooperation with the PI, time points were inputted based on standard routines on the ward: application of study medication was set to 9:00 AM, 12:30 PM, 6:30 PM, and 10:00 PM, and blood sampling was scheduled at 8:45 AM. Assessment of the PANSS was also timed to 8:45 AM. The loss of accuracy by standardizing times was considered acceptable because the time interval between doses and blood sampling is long, so small deviations would have no major impact. Information on actually applied doses or reduced doses was updated in cooperation with a member of the PI's research group. Based on notes in archived patient's case report files and other paper-based documents the electronic data was adjusted.
After consultation with the PI, these values were replaced with 0 because all patients with positive drug screening were excluded from the clinical trial according to the study protocol. Baseline values>0 may result from errors in procedure e.g. when blood samples were taken after dose application. Therefore, the replacement is considered as being equivalent to an imputation of a predose measurement which was not conducted.

[1] abbreviates: both sexes, human, plasma, oral capsule 600 mg/d, cross-over with placebo.

Consider `C=C(C)[C@@H]1CCC(C)=C[C@H]1c1c(O)cc(CCCCC)cc1O` [CBD, cannabidiol], for which, for the setting “Day 21, mean ± SD, cross-over, 0 PT patients under CBD treatment per table”, the “CBD plasma concentration, CBD-PT” value came to 4.0 ± 1.2 µg/L. Besides, the concentration at 28 day turned out to be 2.3 ± 1 ng/mL (both sexes, human, plasma, oral, 600 mg/d); 29.2 ± 27.8 ng/mL (human, plasma, oral, Day 28, mean ± SD, CBD-CT1 + CBD-PT pooled); 42.6 ± 24.7 ng/mL (human, plasma, Day 28, mean ± SD, oral capsule 800 mg/d, trough). The concentration at 7 day reads like this: (both sexes, human, plasma, oral, 600 mg/d, CBD-CT1 + CBD-PT pooled (only PT measured)) 14.1 ± 9.1 ng/mL; under setting [1], 14.1 ± 9.1 ng/mL. The molecule further gave a concentration at 21 day (both sexes, human, plasma, oral, 600 mg/d, Day 21, mean ± SD, pooled (only PT measured)) of 4 ± 1.2 ng/mL. Further, the concentration at 14 day was found to be 19.3 ± 8.7 ng/mL under setting [1]; 35.4 ± 22.6 ng/mL (human, plasma, oral, CBD-CT1 + CBD-PT pooled); 50.5 ± 21.2 ng/mL (human, plasma, oral capsule 800 mg/d (titrated from 200 mg/d in first week), trough).
